According to ChEMBL document CHEMBL3885881, “DrugMatrix”:

Organism: Rattus norvegicus
Assay: DrugMatrix - Regimen: Daily Repeat
Assay type: toxicity, organism-based, Sprague-Dawley
Set-up: regimen Daily Repeat, gender Male, age 6-8 weeks
Settings: in vivo, po, 16 mg/kg, route oral GAVAGE, dose level Low, […]; for ABSOLUTE BASOPHIL / ABSOLUTE EOSINOPHIL / ABSOLUTE LYMPHOCYTE / ABSOLUTE MONOCYTE / ABSOLUTE SEGMENTED NEUTROPHIL / BASOPHIL / EOSINOPHIL / ERYTHROCYTE COUNT / HEMATOCRIT / HEMOGLOBIN / LEUKOCYTE COUNT / LYMPHOCYTE / MEAN CORPUSCULAR HEMOGLOBIN / MEAN CORPUSCULAR HEMOGLOBIN CONCENTRATION / MEAN CORPUSCULAR VOLUME / MONOCYTE / NEUTROPHIL / NUCLEATED RED BLOOD CELLS / PLATELET COUNT: tissue Blood; for ALANINE AMINOTRANSFERASE / ALBUMIN / ALKALINE PHOSPHATASE / ASPARTATE AMINOTRANSFERASE / BLOOD UREA NITROGEN / CARBON DIOXIDE / CHLORIDE / CHOLESTEROL / CREATINE PHOSPHOKINASE / CREATININE / GLUCOSE / LACTATE DEHYDROGENASE / LIPASE / PHOSPHORUS / POTASSIUM / SODIUM / TOTAL BILIRUBIN / TOTAL PROTEIN / URIC ACID: tissue Plasma

## O=C(O)c1cc(-c2ccc(F)cc2F)ccc1O [DIFLUNISAL]
72 h, time 3 day
  ABSOLUTE BASOPHIL: 0 CELLS/uL
  ABSOLUTE EOSINOPHIL: 52.33 CELLS/uL
  ABSOLUTE LYMPHOCYTE: 12636.67 CELLS/uL
  ABSOLUTE MONOCYTE: 104.67 CELLS/uL
  ABSOLUTE SEGMENTED NEUTROPHIL: 1073 CELLS/uL
  BASOPHIL: 0%
  EOSINOPHIL: 0.33%
  ERYTHROCYTE COUNT: 5.44 x10E6/uL
  HEMATOCRIT: 33.4%
  HEMOGLOBIN: 13.27 G/DL
  LEUKOCYTE COUNT: 13.87 x10E3/uL
  LYMPHOCYTE: 91.33%
  MEAN CORPUSCULAR HEMOGLOBIN: 24.4 pg
  MEAN CORPUSCULAR HEMOGLOBIN CONCENTRATION: 39.73 G/DL
  MEAN CORPUSCULAR VOLUME: 61.47 fL
  MONOCYTE: 0.67%
  NEUTROPHIL: 7.67%
  NUCLEATED RED BLOOD CELLS: 0 /100WBC
  PLATELET COUNT: 1096.67 x10E3/uL
  ALANINE AMINOTRANSFERASE: 65.33 u/L
  ALBUMIN: 3.77 G/DL
  ALKALINE PHOSPHATASE: 396.67 u/L
  ASPARTATE AMINOTRANSFERASE: 93.33 u/L
  BLOOD UREA NITROGEN: 10.67 mg/dL
  CARBON DIOXIDE: 29.67 mmol/L
  CHLORIDE: 100 MEQ/L
  CHOLESTEROL: 80.67 mg/dL
  CREATINE PHOSPHOKINASE: 405 u/L
  CREATININE: 0.14 mg/dL
  GLUCOSE: 166.67 mg/dL
  LACTATE DEHYDROGENASE: 130 u/L
  LIPASE: 11.33 u/L
  PHOSPHORUS: 11.43 mg/dL
  POTASSIUM: 6.17 MEQ/L
  SODIUM: 141.97 MEQ/L
  TOTAL BILIRUBIN: 0.13 mg/dL
  TOTAL PROTEIN: 5.47 G/DL
  URIC ACID: 1.53 mg/dL
120 h, time 5 day
  ABSOLUTE BASOPHIL: 0 CELLS/uL
  ABSOLUTE EOSINOPHIL: 84.67 CELLS/uL
  ABSOLUTE LYMPHOCYTE: 10265 CELLS/uL
  ABSOLUTE MONOCYTE: 157.67 CELLS/uL
  ABSOLUTE SEGMENTED NEUTROPHIL: 1026 CELLS/uL
  BASOPHIL: 0%
  EOSINOPHIL: 0.67%
  ERYTHROCYTE COUNT: 5.28 x10E6/uL
  HEMATOCRIT: 33.5%
  HEMOGLOBIN: 13.6 G/DL
  LEUKOCYTE COUNT: 11.53 x10E3/uL
  LYMPHOCYTE: 89%
  MEAN CORPUSCULAR HEMOGLOBIN: 25.73 pg
  MEAN CORPUSCULAR HEMOGLOBIN CONCENTRATION: 40.63 G/DL
  MEAN CORPUSCULAR VOLUME: 63.37 fL
  MONOCYTE: 1.33%
  NEUTROPHIL: 9%
  NUCLEATED RED BLOOD CELLS: 0.33 /100WBC
  PLATELET COUNT: 1107.33 x10E3/uL
  ALANINE AMINOTRANSFERASE: 56 u/L
  ALBUMIN: 4.13 G/DL
  ALKALINE PHOSPHATASE: 404.33 u/L
  ASPARTATE AMINOTRANSFERASE: 84.33 u/L
  BLOOD UREA NITROGEN: 16 mg/dL
  CARBON DIOXIDE: 25.33 mmol/L
  CHLORIDE: 102.33 MEQ/L
  CHOLESTEROL: 68.67 mg/dL
  CREATINE PHOSPHOKINASE: 379.67 u/L
  CREATININE: 0.23 mg/dL
  GLUCOSE: 159.33 mg/dL
  LACTATE DEHYDROGENASE: 227 u/L
  LIPASE: 11.67 u/L
  PHOSPHORUS: 11.33 mg/dL
  POTASSIUM: 6.39 MEQ/L
  SODIUM: 143.53 MEQ/L
  TOTAL BILIRUBIN: 0.17 mg/dL
  TOTAL PROTEIN: 5.47 G/DL
  URIC ACID: 1.67 mg/dL
